Reference: patent publication US11771659B2, “Treating disease and promoting weight loss by inhibiting the TMA/FMO3/TMAO pathway” (The Cleveland Clinic Foundation, priority 2017, dated 2023)

Tests used:
[1] = system: G protein-coupled receptor trace amine-associated receptor 5 (TAAR5); details: Li et al., 2013; cited from earlier work
[2] = system: male C57BL6/J mice on 60% high fat diet; test: TMA lyase inhibition in high fat diet-fed mice (HFD vs HFD+IMC); format: in vivo; details: 0.06% IMC in 60% high fat diet, 6-week-old male C57BL6/J mice
Method: 6-week-old male C57BL6/J mice were maintained on either 60% high fat diet (HFD) or HFD supplemented with 0.06% TMA lyase inhibitor iodomethyl choline (HFD+IMC) for weeks. Results are shown in FIG. 7 (A-E): A) Plasma TMA and TMAO levels (uM); B) Body weight (g); C) Food consumption normalized to body weight (g of diet consumed per day per g of body weight); D) Glucose tolerance measured after 12 weeks on diet; and E) Plasma insulin measured following an overnight fast (Fasted) or 4 hours postprandially (Fed); n=4-5 mice/group.
To determine the role of TMA and TMAO on diet-induced obesity, cohorts of 6-week-old male C57BL6/J mice fed HFD and HFD+IMC were supplemented with either 100 mM TMA in the drinking water (K-M) or 0.3% w/w TMAO in the diet (N-P). […] FIGS. 7K-P specifically show: K) Plasma TMA and TMAO levels (uM) after 6 weeks on diet and TMA supplementation; L) Body weight (g) over 12 weeks; M) Glucose tolerance measured after 10 weeks on diet and TMA supplementation; N) Plasma TMA and TMAO levels (uM) after 12 weeks on diet and TMAO supplementation; O) Body weight (g) over 20 weeks; and P) Glucose tolerance measured after 12 weeks on diet and TMAO supplementation. n=8-10 mice per diet group for all studies unless otherwise indicated. […] Statistical significance determined using student's t-test or two-way ANOVA where appropriate. […]

[3] = system: male leptin deficient ob/ob mice; test: TMA lyase inhibition in leptin deficient ob/ob mice (Con vs Con+IMC); format: in vivo; details: 0.06% IMC in control diet, 16 weeks
Description: 6-week-old male leptin deficient ob/ob mice were maintained on either control diet (Con) or control diet supplemented with 0.06% TMA lyase inhibitor iodomethyl choline (Con+IMC) for 16 weeks. Results are shown in FIG. 7(F-J): F) Plasma TMA and TMAO levels (uM); G) Body weight (g); H) Food consumption normalized to body weight (g of diet consumed per day per g of body weight); I) Glucose tolerance measured after 12 weeks on diet; and J) Mean oxygen consumption (VO2; ml/kg/hr) measured after 5 weeks on diet; n=6 mice/group.
FIG. 8A-F represents data from HFD model and G-K the Ob/Ob model. FIG. 8A,G. Principal co-ordinate analysis (PCoA) plot of microbiota profiles built from weighted Unifrac distances. Each point represents a single sample from a single mouse. Positions of points in space display dissimilarities in the microbiota, with points further from one another being more dissimilar. FIG. 8B,H. Barplot of cecal microbiota at the phylum level. Each bar represents an individual mouse and each color an individual phyla. FIG. 8C. Relative abundance of Firmicutes, Bacteroidetes and the Firmicutes to Baceteroidetes ratio for mice on HFD with or without IMC. […] Points extending beyond the lines are outliers defined as values greater or less than 1.5 times the interquartile range. […] FIG. 8E,J. Spearman's correlation between Akkermansia muciniphila and TMA/body weight. […]

Compound	activation/recognition of TAAR5 [1]	obesity driven by high fat diet [2]	obesity driven by leptin deficiency [3]
CN(C)C [TMA, trimethylamine]	known to activate	–	–
C[N+](C)(C)[O-] [TMAO, trimethylamine-N-oxide]	does not recognize	–	–
C[N+](C)(CI)CCO [IMC, iodomethyl choline]	–	improves obesity	improves obesity
